Results taken from US12157717B2, “Compounds for the treatment of bovine or swine respiratory disease” (Intervet Inc., priority 2018, dated 2024).
Converted amounts (≈) assume the structure as drawn.

Each molecule was assayed on Mannheimia haemolytica MH 6357 (M7/2) (assay: MIC, broth-microdilution (CLSI), strain MH 6357). Settings: Mannheimia haemolytica M7/2, reference strain (cattle infection strain).
Format: cell-based
Procedure: (§1) The Minimum inhibitory concentrations (MIC) of compounds according to the invention for a number of veterinary bacterial pathogens were determined by the broth-microdilution method according to CLSI document VETO 1-A4.
(§2) Microdilution trays containing a doubling dilution series of the test compound were used for the tests. The MIC results were interpreted according to the CLSI documents VET01-S3. The lowest concentration of compound at which no visible growth (i.e. no turbidity) detected by the unaided eye was recorded as the MIC.

| SMILES | MIC MH 6357 [µM] |
| --- | --- |
| C=CCNCc1ccc(C#Cc2ccc(C(=O)NC(C(=O)NC)C(=O)NO)cc2)cc1 (centres unmarked) [Compound 2] | 0.8 (≈ 0.336 µg/mL) |
| CNC(=O)C(NC(=O)c1ccc(C#Cc2ccc(CNCc3cccs3)cc2)cc1)C(=O)NO (centres unmarked) [Compound 15] | 0.2 (≈ 0.0953 µg/mL) |
| CNC(=O)C(C(=O)NO)N(C)C(=O)c1ccc(C#Cc2ccc(CNCc3ccc(OC)cc3)cc2)cc1 (centres unmarked) [Compound 24] | 1.6 (≈ 0.823 µg/mL) |
| CNC(=O)C(C(=O)NO)N(C)C(=O)c1ccc(C#Cc2ccc(CNCc3nccs3)cc2)cc1 (centres unmarked) [Compound 29] | 6.3 (≈ 3.1 µg/mL) |
| CNC(=O)C(NC(=O)c1ccc(C#Cc2ccc(CNCC3CCCO3)cc2)cc1)C(=O)NO (centres unmarked) [Compound 17] | 3.1 (≈ 1.44 µg/mL) |

The molecules below were run on Mannheimia haemolytica MH 6374 (ATCC 33396) (assay: MIC, broth-microdilution (CLSI), strain MH 6374). Settings: Mannheimia haemolytica ATCC 33396, reference strain.
Format: cell-based
Procedure: as §1, §2

| SMILES | MIC MH 6374 [µM] |
| --- | --- |
| C=CCNCc1ccc(C#Cc2ccc(C(=O)NC(C(=O)NC)C(=O)NO)cc2)cc1 (centres unmarked) [Compound 2] | 1.6 (≈ 0.673 µg/mL) |
| CNC(=O)C(NC(=O)c1ccc(C#Cc2ccc(CNCc3cccs3)cc2)cc1)C(=O)NO (centres unmarked) [Compound 15] | 0.2 (≈ 0.0953 µg/mL) |
| CNC(=O)C(C(=O)NO)N(C)C(=O)c1ccc(C#Cc2ccc(CNCc3ccc(OC)cc3)cc2)cc1 (centres unmarked) [Compound 24] | 1.6 (≈ 0.823 µg/mL) |
| CNC(=O)C(C(=O)NO)N(C)C(=O)c1ccc(C#Cc2ccc(CNCc3nccs3)cc2)cc1 (centres unmarked) [Compound 29] | 3.1 (≈ 1.52 µg/mL) |
| CNC(=O)C(NC(=O)c1ccc(C#Cc2ccc(CNCC3CCCO3)cc2)cc1)C(=O)NO (centres unmarked) [Compound 17] | 6.3 (≈ 2.93 µg/mL) |

What follows are molecules tested on Mannheimia haemolytica MH 10720 (154) (assay: MIC, broth-microdilution (CLSI), strain MH 10720). Settings: Mannheimia haemolytica 154, BRD field isolate.
Format: cell-based
Procedure: as §1, §2

| SMILES | MIC MH 10720 [µM] |
| --- | --- |
| C=CCNCc1ccc(C#Cc2ccc(C(=O)NC(C(=O)NC)C(=O)NO)cc2)cc1 (centres unmarked) [Compound 2] | 0.4 (≈ 0.168 µg/mL) |
| CNC(=O)C(NC(=O)c1ccc(C#Cc2ccc(CNCc3cccs3)cc2)cc1)C(=O)NO (centres unmarked) [Compound 15] | ≤0.1 |
| CNC(=O)C(C(=O)NO)N(C)C(=O)c1ccc(C#Cc2ccc(CNCc3ccc(OC)cc3)cc2)cc1 (centres unmarked) [Compound 24] | 0.8 (≈ 0.412 µg/mL) |
| CNC(=O)C(C(=O)NO)N(C)C(=O)c1ccc(C#Cc2ccc(CNCc3nccs3)cc2)cc1 (centres unmarked) [Compound 29] | 1.6 (≈ 0.787 µg/mL) |
| CNC(=O)C(NC(=O)c1ccc(C#Cc2ccc(CNCC3CCCO3)cc2)cc1)C(=O)NO (centres unmarked) [Compound 17] | 0.8 (≈ 0.372 µg/mL) |

The molecules below were run on Mannheimia haemolytica MH 12587 (1071), macrolide-resistance: erm+, E+ (assay: MIC, broth-microdilution (CLSI), strain MH 12587). Settings: Mannheimia haemolytica 1071, BRD field isolate.
Format: cell-based
Procedure: as §1, §2

| SMILES | MIC MH 12587 [µM] |
| --- | --- |
| C=CCNCc1ccc(C#Cc2ccc(C(=O)NC(C(=O)NC)C(=O)NO)cc2)cc1 (centres unmarked) [Compound 2] | 0.8 (≈ 0.336 µg/mL) |
| CNC(=O)C(NC(=O)c1ccc(C#Cc2ccc(CNCc3cccs3)cc2)cc1)C(=O)NO (centres unmarked) [Compound 15] | 0.8 (≈ 0.381 µg/mL) |
| CNC(=O)C(C(=O)NO)N(C)C(=O)c1ccc(C#Cc2ccc(CNCc3ccc(OC)cc3)cc2)cc1 (centres unmarked) [Compound 24] | 12.5 (≈ 6.43 µg/mL) |
| CNC(=O)C(C(=O)NO)N(C)C(=O)c1ccc(C#Cc2ccc(CNCc3nccs3)cc2)cc1 (centres unmarked) [Compound 29] | 12.5 (≈ 6.14 µg/mL) |
| CNC(=O)C(NC(=O)c1ccc(C#Cc2ccc(CNCC3CCCO3)cc2)cc1)C(=O)NO (centres unmarked) [Compound 17] | 12.5 (≈ 5.81 µg/mL) |

The molecules below were run on Mannheimia haemolytica MH 13065 (XB0446-6003.9) (assay: MIC, broth-microdilution (CLSI), strain MH 13065). Settings: Mannheimia haemolytica XB0446-6003.9, BRD field isolate.
Format: cell-based
Procedure: as §1, §2

| SMILES | MIC MH 13065 [µM] |
| --- | --- |
| C=CCNCc1ccc(C#Cc2ccc(C(=O)NC(C(=O)NC)C(=O)NO)cc2)cc1 (centres unmarked) [Compound 2] | 0.8 (≈ 0.336 µg/mL) |
| CNC(=O)C(NC(=O)c1ccc(C#Cc2ccc(CNCc3cccs3)cc2)cc1)C(=O)NO (centres unmarked) [Compound 15] | 0.2 (≈ 0.0953 µg/mL) |
| CNC(=O)C(C(=O)NO)N(C)C(=O)c1ccc(C#Cc2ccc(CNCc3ccc(OC)cc3)cc2)cc1 (centres unmarked) [Compound 24] | 3.1 (≈ 1.6 µg/mL) |
| CNC(=O)C(C(=O)NO)N(C)C(=O)c1ccc(C#Cc2ccc(CNCc3nccs3)cc2)cc1 (centres unmarked) [Compound 29] | 6.3 (≈ 3.1 µg/mL) |
| CNC(=O)C(NC(=O)c1ccc(C#Cc2ccc(CNCC3CCCO3)cc2)cc1)C(=O)NO (centres unmarked) [Compound 17] | 3.1 (≈ 1.44 µg/mL) |

What follows are molecules tested on Mannheimia haemolytica MH 13093 (XB0472-6014.1) (assay: MIC, broth-microdilution (CLSI), strain MH 13093). Settings: Mannheimia haemolytica XB0472-6014.1, BRD field isolate.
Format: cell-based
Procedure: as §1, §2

| SMILES | MIC MH 13093 [µM] |
| --- | --- |
| C=CCNCc1ccc(C#Cc2ccc(C(=O)NC(C(=O)NC)C(=O)NO)cc2)cc1 (centres unmarked) [Compound 2] | 1.6 (≈ 0.673 µg/mL) |
| CNC(=O)C(NC(=O)c1ccc(C#Cc2ccc(CNCc3cccs3)cc2)cc1)C(=O)NO (centres unmarked) [Compound 15] | 0.2 (≈ 0.0953 µg/mL) |
| CNC(=O)C(C(=O)NO)N(C)C(=O)c1ccc(C#Cc2ccc(CNCc3ccc(OC)cc3)cc2)cc1 (centres unmarked) [Compound 24] | 6.3 (≈ 3.24 µg/mL) |
| CNC(=O)C(C(=O)NO)N(C)C(=O)c1ccc(C#Cc2ccc(CNCc3nccs3)cc2)cc1 (centres unmarked) [Compound 29] | 12.5 (≈ 6.14 µg/mL) |
| CNC(=O)C(NC(=O)c1ccc(C#Cc2ccc(CNCC3CCCO3)cc2)cc1)C(=O)NO (centres unmarked) [Compound 17] | 12.5 (≈ 5.81 µg/mL) |

What follows are molecules tested on Pasteurella multocida PM 6267 (P 2225 (L386)) (assay: MIC, broth-microdilution (CLSI), strain PM 6267). Settings: Pasteurella multocida P 2225 (L386), reference strain (mouse infection strain).
Format: cell-based
Procedure: as §1, §2

| SMILES | MIC PM 6267 [µM] |
| --- | --- |
| C=CCNCc1ccc(C#Cc2ccc(C(=O)NC(C(=O)NC)C(=O)NO)cc2)cc1 (centres unmarked) [Compound 2] | 0.2 (≈ 0.0841 µg/mL) |
| CNC(=O)C(NC(=O)c1ccc(C#Cc2ccc(CNCc3cccs3)cc2)cc1)C(=O)NO (centres unmarked) [Compound 15] | ≤0.1 |
| CNC(=O)C(C(=O)NO)N(C)C(=O)c1ccc(C#Cc2ccc(CNCc3ccc(OC)cc3)cc2)cc1 (centres unmarked) [Compound 24] | 0.4 (≈ 0.206 µg/mL) |
| CNC(=O)C(C(=O)NO)N(C)C(=O)c1ccc(C#Cc2ccc(CNCc3nccs3)cc2)cc1 (centres unmarked) [Compound 29] | 0.8 (≈ 0.393 µg/mL) |
| CNC(=O)C(NC(=O)c1ccc(C#Cc2ccc(CNCC3CCCO3)cc2)cc1)C(=O)NO (centres unmarked) [Compound 17] | ≤0.1 |

These molecules were tested on Pasteurella multocida PM 6391 (ATCC 43137) (assay: MIC, broth-microdilution (CLSI), strain PM 6391). Settings: Pasteurella multocida ATCC 43137, reference strain.
Format: cell-based
Procedure: as §1, §2

| SMILES | MIC PM 6391 [µM] |
| --- | --- |
| C=CCNCc1ccc(C#Cc2ccc(C(=O)NC(C(=O)NC)C(=O)NO)cc2)cc1 (centres unmarked) [Compound 2] | 0.4 (≈ 0.168 µg/mL) |
| CNC(=O)C(NC(=O)c1ccc(C#Cc2ccc(CNCc3cccs3)cc2)cc1)C(=O)NO (centres unmarked) [Compound 15] | ≤0.1 |
| CNC(=O)C(C(=O)NO)N(C)C(=O)c1ccc(C#Cc2ccc(CNCc3ccc(OC)cc3)cc2)cc1 (centres unmarked) [Compound 24] | 1.6 (≈ 0.823 µg/mL) |
| CNC(=O)C(C(=O)NO)N(C)C(=O)c1ccc(C#Cc2ccc(CNCc3nccs3)cc2)cc1 (centres unmarked) [Compound 29] | 3.1 (≈ 1.52 µg/mL) |
| CNC(=O)C(NC(=O)c1ccc(C#Cc2ccc(CNCC3CCCO3)cc2)cc1)C(=O)NO (centres unmarked) [Compound 17] | 0.4 (≈ 0.186 µg/mL) |

These molecules were tested on Pasteurella multocida PM 10775 (080130003051) (assay: MIC, broth-microdilution (CLSI), strain PM 10775). Settings: Pasteurella multocida 080130003051, BRD field isolate.
Format: cell-based
Procedure: as §1, §2

| SMILES | MIC PM 10775 [µM] |
| --- | --- |
| C=CCNCc1ccc(C#Cc2ccc(C(=O)NC(C(=O)NC)C(=O)NO)cc2)cc1 (centres unmarked) [Compound 2] | ≤0.1 |
| CNC(=O)C(NC(=O)c1ccc(C#Cc2ccc(CNCc3cccs3)cc2)cc1)C(=O)NO (centres unmarked) [Compound 15] | ≤0.1 |
| CNC(=O)C(C(=O)NO)N(C)C(=O)c1ccc(C#Cc2ccc(CNCc3ccc(OC)cc3)cc2)cc1 (centres unmarked) [Compound 24] | ≤0.1 |
| CNC(=O)C(C(=O)NO)N(C)C(=O)c1ccc(C#Cc2ccc(CNCc3nccs3)cc2)cc1 (centres unmarked) [Compound 29] | 0.2 (≈ 0.0983 µg/mL) |
| CNC(=O)C(NC(=O)c1ccc(C#Cc2ccc(CNCC3CCCO3)cc2)cc1)C(=O)NO (centres unmarked) [Compound 17] | ≤0.1 |

These molecules were tested on Pasteurella multocida PM 12080 (IV102277-0093) (assay: MIC, broth-microdilution (CLSI), strain PM 12080). Settings: Pasteurella multocida IV102277-0093, BRD field isolate.
Format: cell-based
Procedure: as §1, §2

| SMILES | MIC PM 12080 [µM] |
| --- | --- |
| C=CCNCc1ccc(C#Cc2ccc(C(=O)NC(C(=O)NC)C(=O)NO)cc2)cc1 (centres unmarked) [Compound 2] | ≤0.1 |
| CNC(=O)C(NC(=O)c1ccc(C#Cc2ccc(CNCc3cccs3)cc2)cc1)C(=O)NO (centres unmarked) [Compound 15] | ≤0.1 |
| CNC(=O)C(C(=O)NO)N(C)C(=O)c1ccc(C#Cc2ccc(CNCc3ccc(OC)cc3)cc2)cc1 (centres unmarked) [Compound 24] | 1.6 (≈ 0.823 µg/mL) |
| CNC(=O)C(C(=O)NO)N(C)C(=O)c1ccc(C#Cc2ccc(CNCc3nccs3)cc2)cc1 (centres unmarked) [Compound 29] | 1.6 (≈ 0.787 µg/mL) |
| CNC(=O)C(NC(=O)c1ccc(C#Cc2ccc(CNCC3CCCO3)cc2)cc1)C(=O)NO (centres unmarked) [Compound 17] | 0.2 (≈ 0.0929 µg/mL) |
